Laboratory results: patent US5686424A, “2-oxoethyl derivatives as immunosuppressants” (Miles Inc., priority 1995, dated 1997)
Counter-ions that a name gives are not always drawn.

Columns and labels:
[1] = tested on: graft versus host response; test: Mouse Lymph Node Assay for Modulation of Graft versus Host Response; type: in vivo; conditions: mice, 100 mg/kg per day intraperitoneal, after 7 days; popliteal lymph nodes, C57 B1/6-injected limb divided by BDF1-injected limb
Description: 4) Graft versus Host Assay
Transfer of parental strain T-cells (the graft) into F1 hybrid animals (the host) major different with respect to gene products of the histocompatibility complex (MHC) causes a GVHR. This reaction results from recognition of host allogeneic MHC gene products by specific clones of graft T-cells.
When given systemically in sufficient numbers, the graft T-cells cause a progressive, generally fatal, wasting syndrome. A local, nonfatal GVHR, marked by enlargement of the draining popliteal lymph nodes, ensues when graft T-cells are administered via the footpad as described by Ford et al., 1970, Transplantation 10:258. The GVHR is regarded as a correlate of allograft rejections where specific T-cells of either host or allograft origin are activated after recognition of allogeneic MHC gene products, leading to an immune inflammatory response which ultimately results in the destruction (rejection) of the allograft.
Mouse Lymph Node Assay for Modulation of Graft versus Host Response […]
After 7 days, the draining popliteal lymph nodes from the hind limbs were dissected out and weighed. The magnitude of the GVHR was expressed as the ratio of the mean weight of lymph nodes from the limb injected with semi-allogeneic C57 B1/6 cells divided by the mean weight of lymph nodes from the limb injected with syngeneic BDF1 cells.

[2] = tested on: human T-cells; test: Suppression of Human T-Cell Proliferation Assay (PHA-stimulated, [3H]-thymidine incorporation); type: cell-based; conditions: concentration inhibiting [3H]-thymidine incorporation of PHA-stimulated T-cells by 50%, 72 hours; TABLE 2; read-out: IC50
Outline: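 SRBC-rosette-purified human peripheral T-cells stimulated with PHA-M (40 μg/ml stock) and compound dilutions, in duplicate, for 72 h at 37° C. Proliferation measured by [3H]-thymidine incorporation during the final 6 h, read by liquid scintillation counting.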

[3] = biological target: FKBP (Homo sapiens, UniProt P62942); test: PPIase Inhibition Assay; type: biochemical; conditions: concentration of inhibitor required for 50% inhibition of enzyme activity; FKBP, substrate Succinyl-Ala-Phe-Pro-Phe-para-nitroanilide; TABLE I
Outline: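 Chymotrypsin-coupled isomerization of Succinyl-Ala-Phe-Pro-Phe-para-nitroanilide by FKBP in ice-cold 25 mM HEPES pH 7.8, 100 mM NaCl, compound in DMSO. A390 followed 90 sec; first-order rate constants give % activity remaining after subtracting uncatalyzed rate; IC50 by linear regression of V-/V+ versus concentration.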

[4] = tested on: NF-AT; test: NF-AT Inhibition Assay Directed β-Galactosidase Expression in FGL-5 cells; type: cell-based; conditions: 50% inhibition of NF-AT directed β-galactosidase activity in FGL-5 cells stimulated with phorbol dibutyrate and ionomycin; TABLE 3
Outline: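 FGL-5 Jurkat cells (3 million cells/ml) carry NF-AT-site-driven lacZ. They were stimulated with phorbol dibutyrate plus ionomycin and incubated with compound 16-18 h at 37 °C, in duplicate wells with matched ethanol or DMSO vehicle controls. β-Galactosidase was read as fluorescence from 4-methylumbelliferyl-β-D-galactoside cleavage, giving percent inhibition.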

FKBP, sequence (P62942 whole entry): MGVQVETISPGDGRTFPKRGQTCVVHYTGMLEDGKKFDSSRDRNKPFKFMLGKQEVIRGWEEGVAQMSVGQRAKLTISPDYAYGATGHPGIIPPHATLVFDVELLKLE

IC50 [3] [µM]	IC50 [4] [µM]	Compound	Lymph Node Weight Ratio [1]	IC50 [2] [µM]
0.06	–	CC[C@H](C)[C@H](NC(=O)[C@@H]1CCCN1CC(=O)C12CC3CC(CC(C3)C1)C2)C(=O)NCc1ccccc1 [Example 24, L-Isoleucine, N-[1-(2-Adamantan-1-yl-2-Oxoethyl)-L-Prolyl] Benzylamide]	1.2	12
> 5	> 33	COc1cc(C(=O)CN2CCC[C@H]2C(=O)NC(Cc2ccccc2)c2ccccc2)cc(OC)c1OC (stereo partly drawn) [Example 144, L-Proline, 1-[2-(3,4,5-Trimethoxyphenyl)-2-Oxoethyl] 1,2-DiphenylethylamideHydrochloride]	–	19
> 5	> 33	COc1cc(C(=O)CN2CCC[C@H]2C(=O)NC2CCCCC2)cc(OC)c1OC [Example 145, L-Proline, 1-[2-(3,4,5-Trimethoxyphenyl)-2-Oxoethyl] Cyclohexyl amide Hydrochloride]	–	4
> 5	> 15	COc1cc(C(=O)CN2CCCC[C@H]2C(=O)NCc2ccccc2)cc(OC)c1OC [Example 146, L-Homoproline, 1-[2-(3,4,5-Trimethoxyphenyl)-2-Oxoethyl] Benzylamide Hydrochloride]	–	> 15
> 5	> 15	COc1cc(C(=O)CN2CCCC[C@H]2C(=O)NCC23CC4CC(CC(C4)C2)C3)cc(OC)c1OC [Example 147, L-Homoproline, 1-[2-(3,4,5-Trimethoxyphenyl)-2-Oxoethyl] Adamant-1-ylmethylamide Hydrochloride]	–	8
> 5	> 15	COc1cc(C(=O)CN2CCCC[C@H]2C(=O)NCC2CCCO2)cc(OC)c1OC (stereo partly drawn) [Example 148, L-Homoproline, 1-[2-(3,4,5-Trimethoxyphenyl)-2-Oxoethyl] tetrahydrofurfurylamide]	–	> 15
> 5	> 15	COc1cc(C(=O)CN2CCCC[C@H]2C(=O)NCCc2ccc(S(N)(=O)=O)cc2)cc(OC)c1OC [Example 149, L-Homoproline, 1-[2-(3,4,5-Trimethoxyphenyl)-2-Oxoethyl] 2-(4-Sulfamoylphenyl)ethylamide]	–	> 15
> 5	> 15	COc1cc(C(=O)CN2CCCC[C@H]2C(=O)N[C@@H](C)c2ccccc2)cc(OC)c1OC [Example 150, L-Homoproline, 1-[2-(3,4,5-Trimethoxyphenyl)-2-Oxoethyl] (S)-α-methylbenzylamide Hydrochloride]	–	> 15
> 5	> 15	COc1cc(C(=O)CN2CCCC[C@H]2C(=O)N[C@H](/C=C/c2ccccc2)CC(C)C)cc(OC)c1OC [Example 151, L-Homoproline, 1-[2-(3,4,5-Trimethoxyphenyl)-2-Oxoethyl] (1-(S)-[2'-(S)-methylpropyl]-3-phenylprop-2-E-enyl)-amide]	–	4
> 5	> 15	COc1cc(C(=O)CN2CCCC[C@H]2C(=O)N[C@@H](CCc2ccccc2)CC(C)C)cc(OC)c1OC [Example 152, L-Homoproline, 1-[2-(3,4,5-Trimethoxyphenyl)-2-Oxoethyl] (1-(S)-[2'-(S)-methylpropyl]-3-phenylpropyl)-amide]	–	8
> 5	> 15	COc1cc(C(=O)CN2CCC[C@H]2C(=O)NCCc2ccc(NC(C)=O)cc2)cc(OC)c1OC [Example 154, L-Proline, 1-[2-(3,4,5-Trimethoxyphenyl)-2-Oxoethyl] 2-(4-(N-Acetyl)aminophenyl)ethylamide]	–	13
> 5	> 15	COc1cc(C(=O)CN2CCC[C@H]2C(=O)NCCc2ccc(NC(=O)c3ccccc3)cc2)cc(OC)c1OC [Example 155, L-Proline, 1-[2-(3,4,5-Trimethoxyphenyl)-2-Oxoethyl] 2-(4-(N-Benzoyl)aminophenyl)ethylamide]	–	9
> 5	> 15	C=CCOC(=O)Nc1ccc(CCNC(=O)[C@@H]2CCCN2CC(=O)c2cc(OC)c(OC)c(OC)c2)cc1 [Example 156, L-Proline, 1-[2-(3,4,5-Trimethoxyphenyl)-2-Oxoethyl] 2-(4-(N-carboalloxy)aminophenyl)ethylamide]	–	6
> 5	> 15	COc1cc(C(=O)CN2CCC[C@H]2C(=O)NCCc2ccc(NC(=O)OCc3ccccc3)cc2)cc(OC)c1OC [Example 157, L-Proline, 1-[2-(3,4,5-Trimethoxyphenyl)-2-Oxoethyl] 2-(4-(N-Carbobenzyloxy)aminophenyl)ethylamide]	–	5
> 5	3	C=CCOC(=O)Nc1ccc(CCCOC(=O)[C@@H]2CCCCN2CC(=O)c2cc(OC)c(OC)c(OC)c2)cc1 [Example 159, L-Homoproline, 1-[2-(3,4,5-Trimethoxyphenyl)-2-Oxoethyl] 3-(4-(N-Carboallyloxy)aminophenyl)propyl Ester Hydrochloride]	–	10
> 5	> 15	C=CCOC(=O)Nc1ccc(CCCOC(=O)[C@@H]2CCCN2CC(=O)C23CC4CC(CC(C4)C2)C3)cc1 [Example 160, L-Proline, 1-[2-Adamantan-1-yl-2-Oxoethyl] 3-(4-(N-Carboallyloxy)aminophenyl)propyl Ester Hydrochloride]	–	> 15
> 5	> 15	C=CCOC(=O)Nc1ccc(CCCOC(=O)[C@@H]2CCCCN2CC(=O)C23CC4CC(CC(C4)C2)C3)cc1 [Example 161, L-Homoproline, 1-[2-Adamant-1-yl-2-Oxoethyl] 3-(4-(N-Carboallyloxy)aminophenyl)propyl Ester Hydrochloride]	–	9
